Data on twelve compounds can be found in patent US8404694B2, “Aurora kinase modulators and method of use” (Amgen Inc., priority 2008, dated 2013).

One assay addresses T1, AuroraA-TPX2 (Homo sapiens, UniProt O14965).
T1 construct: 20 μL of AuroraA-TPX2 KD GST; GST
T1 sequence (O14965 133-383 limits assumed): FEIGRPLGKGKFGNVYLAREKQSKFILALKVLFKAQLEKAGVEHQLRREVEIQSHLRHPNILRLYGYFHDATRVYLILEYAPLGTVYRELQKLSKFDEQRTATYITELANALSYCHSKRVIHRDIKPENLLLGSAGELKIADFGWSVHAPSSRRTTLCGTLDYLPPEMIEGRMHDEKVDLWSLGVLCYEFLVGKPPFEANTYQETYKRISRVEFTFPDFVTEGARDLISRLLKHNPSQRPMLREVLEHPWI
T1 sequence (Q9ULW0 1-747 partner): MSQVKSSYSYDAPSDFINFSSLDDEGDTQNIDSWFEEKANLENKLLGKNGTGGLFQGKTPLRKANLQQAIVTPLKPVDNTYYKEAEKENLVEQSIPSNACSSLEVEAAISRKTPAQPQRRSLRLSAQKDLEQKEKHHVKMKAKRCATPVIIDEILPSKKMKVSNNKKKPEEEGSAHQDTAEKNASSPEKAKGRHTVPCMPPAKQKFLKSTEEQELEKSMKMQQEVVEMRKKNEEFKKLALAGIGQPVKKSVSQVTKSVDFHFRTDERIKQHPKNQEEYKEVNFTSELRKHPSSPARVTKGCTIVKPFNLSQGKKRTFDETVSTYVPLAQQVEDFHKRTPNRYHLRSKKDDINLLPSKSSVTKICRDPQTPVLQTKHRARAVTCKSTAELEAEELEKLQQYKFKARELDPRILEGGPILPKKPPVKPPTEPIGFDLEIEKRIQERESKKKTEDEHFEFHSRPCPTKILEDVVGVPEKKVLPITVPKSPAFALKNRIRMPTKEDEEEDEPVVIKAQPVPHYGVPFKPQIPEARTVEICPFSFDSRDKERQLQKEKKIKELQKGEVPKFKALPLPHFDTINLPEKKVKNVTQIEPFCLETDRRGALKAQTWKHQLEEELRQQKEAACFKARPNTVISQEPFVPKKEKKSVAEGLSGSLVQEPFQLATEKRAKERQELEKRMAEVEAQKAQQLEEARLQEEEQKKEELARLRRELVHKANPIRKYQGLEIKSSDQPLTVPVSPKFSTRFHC
Kind of assay: AuroraA-TPX2 Homogeneous Time Resolved Fluorescent (HTRF) kinase assay. The format is biochemical. The following applies: ATP about 1 μM, biotinylated PLK peptide, read-out: AurA_IC50—IP (Avg). The procedure: AuroraA-TPX2-Homogeneous Time Resolved Fluorescent (HTRF) Kinase Assay:
The Aurora-A HTRF assay begins with Aurora-A in the presence of ATP phosphorylating the biotinylated peptide PLK. The reaction incubates for about 120 min. Detection reagents are added to quench the reaction. These agents stop the reaction by diluting out the enzyme and chelating the metals due to the presence of EDTA. After addition, the assay is incubated overnight to allow the detection reagents to equilibrate.
The AuroraA HTRF assay comprises 1 μL of compound in 100% DMSO, 20 μL of ATP and biotinylated PLK, and 20 μL of AuroraA-TPX2 KD GST for a final volume of about 41 μL. The final concentration of PLK is about 1 μM. The final concentration of ATP is about 1 μM (Km(app)=1 μM+/−0.1) and the final concentration of AuroraA is about 5 nM. Buffer conditions are as follows: 60 mM HEPES pH 7.5, 25 mM NaCl, 10 mM MgCl, 2 mM DTT, 0.05% BSA.
The assay is quenched and stopped with 160 μL of detection reagent. Detection reagents are as follows: Buffer made of 50 mM Tris, pH 7.5, 100 mM NaCl, 3 mM EDTA, 0.05% BSA, 0.1% Tween20. Added to this buffer prior to reading is Steptavidin allophycocyanin (SA-APC) at a final conc in the assay of 0.0005 mg/mL, and europilated anti-phosphoPLK Ab (Eu-anti-PLK) at a final conc of 0.02 nM.
The assay plate is read in either a Discovery or a RubyStar. The eu-anti-PLK is excited at 320 nm and emits at 615 nm to excite the SA-APC which in turn emits at 655 nm. The ratio of SA-APC at 655 nm (excited due to close proximity to the Eu-anti-PLK because of phosphorylation of the peptide) to free Eu-anti-PLK at 615 nm will give substrate phosphorylation.
(§1) Many of the Examples described herein were tested, and found to be active compounds. Table I includes related biological data, which may be interpreted using the activity gauge below: […]
For orientation: Time-resolved FRET reads energy transfer from a long-lived donor to a nearby acceptor.

Another assay deals with T2, AuroraB (Homo sapiens, UniProt Q96GD4).
T2 construct: 20 μL of AuroraB FL His; His
T2 sequence (Q96GD4 whole entry): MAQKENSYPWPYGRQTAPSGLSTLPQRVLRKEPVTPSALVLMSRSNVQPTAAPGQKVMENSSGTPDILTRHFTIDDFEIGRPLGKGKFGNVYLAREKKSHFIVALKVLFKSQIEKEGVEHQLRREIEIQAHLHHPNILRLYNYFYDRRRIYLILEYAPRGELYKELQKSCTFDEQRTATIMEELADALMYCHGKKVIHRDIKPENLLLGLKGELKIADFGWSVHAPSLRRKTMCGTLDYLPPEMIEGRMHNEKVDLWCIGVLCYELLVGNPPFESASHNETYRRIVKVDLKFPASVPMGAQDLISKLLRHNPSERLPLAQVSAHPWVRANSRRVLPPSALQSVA
As to the kind of experiment: AuroraB Homogeneous Time Resolved Fluorescent (HTRF) kinase assay. The format is biochemical. The following applies: ATP 23 μM, biotinylated Histone H3 peptide, read-out: AurB_IC50—IP (Avg). The procedure: AuroraB-Homogeneous Time Resolved Fluorescent (HTRF) Kinase Assay:
The AuroraB HTRF assay begins with AuroraB in the presence of ATP phosphorylating the biotinylated peptide Histone H3. The reaction incubates for about 90 min. the reaction is quenched by addition of detection reagents, which stop the reaction by diluting out the enzyme and chelating the metals due to the presence of EDTA. After addition, the assay is incubated for about 60 min to allow detection reagents to equilibrate.
The AuroraB HTRF assay comprises 1 μL of compound in 100% DMSO, 20 μL of ATP and biotinylated Histone H3, and 20 μL of AuroraB FL His for a final volume of 41 μL. The final concentration of Histone H3 is 0.1 μM. The final concentration of ATP is 23 μM (Km(app)=23 μM+/−2.6) and the final concentration of AuroraB is 400 pM. Buffer conditions are as follows: 50 mM HEPES pH 7.5, 5 mM NaCl, 0.5 mM MgCl, 0.5 mM MnCl, 2 mM DTT, 0.05% BSA.
The assay is quenched and stopped with 160 μL of detection reagent. Detection reagents are as follows: Buffer made of 50 mM Tris, pH 7.5, 100 mM NaCl, 3 mM EDTA, 0.05% BSA, 0.1% Tween20. Added to this buffer prior to reading is Steptavidin allophycocyanin (SA-APC) at a final conc in the assay of 0.001 mg/mL, and europilated anti-phosphoHistoneH3 Ab (Eu-anti-His H3) at a final conc of 0.064 nM.
The assay plate is read in either a Discovery or a RubyStar. The eu-anti-His H3 is excited at 320 nm and emits at 615 nm to excite the SA-APC which in turn emits at 655 nm. The ratio of SA-APC at 655 nm (excited due to close proximity to the Eu-anti-His H3 because of phosphorylation of the peptide) to free Eu-anti-His H3 at 615 nm will give substrate phosphorylation.
as §1

The next assay concerns HeLa cells. As to the kind of experiment: HeLa cell 24 hr ploidy assay. The format is cell-based. The following applies: Homo sapiens, 24 hrs treatment, DNA content (ploidy), read-out: 24 h_4N Ploidy EC50—IP (Avg). The procedure:
HeLa Cell 24 hr Ploidy Assay Protocol
The purpose of this assay is to evaluate the ability of selected individual compounds to induce Deoxyribonucleic acid (DNA) content (ploidy) in cells thought failed cell division. Cell cycle analysis is a rapid and efficient way to evaluate the status of DNA content (ploidy) of a given cell. HeLa cells (1×10^4 HeLa cells/well) in 100 ul of media (MEM+10% FBS) were plated in 96-well plates (Packard View) and cultured for 24 hrs at 37° C. maintained in a 5% CO2 atmosphere. The following day, cells were treated for 24 hrs with inhibitor compounds (10 pt. Dose ranging from 0.0024-1.25 umol/L). The compounds were serially diluted in DMSO (0.25% final concentration). The cells were fixed (3.7% Formaldehyde and 1% glutaraldehyde) and permeabilized (1×PBS with 1% BSA and 0.2% Triton X-100) in preparation for nuclear staining. The well plates were stained for 45 minutes at RT in the dark using Hoechest 33342 nuclear stain at 0.5 ug·ml (Stock of 10 mg/ml, Invitrogen, CA, Cat # H3570). The nuclear stain was removed by aspiration and the cells were washed with wash buffer. A Cellomics Array Scan Vti plate reader was used to acquire the DNA ploidy data of the cells using Cell Cycle bioapplication. Numbers for each of “valid cell count/well”, “% of 4N cells” and “% of >4Ncells” were calculated with the assistance of an Activity Base 5.1ca software and dose curves were generated using an XLFit software. With XLFit, final EC50 IP and EC50 transit values, as well as the Max and Min, were calculated for each curve. Many of the Examples described herein were tested, and fund to be active compounds. Table I includes related biological data in the 24 h cell-ploidy content assay, which may be interpreted using the activity gauge below: […]

What is called EC50 is the midpoint of the concentration-response curve. Regarding `Cc1csc(-c2nnc(Nc3ccc(Oc4ncnn5cccc45)cc3)c3ccccc23)c1` [Example 24, 4-(4-methyl-2-thienyl)-N-(4-(pyrrolo[2,1-f][1,2,4]triazin-4-yloxy)phenyl)-1-phthalazinamine], the IC50 on AuroraA-TPX2 was 100 to 500 nM; on AuroraB, below 100 nM. The EC50 in the assay with HeLa cells was 100 to 500 nM.

As for `Cc1csc(-c2nnc(Nc3ccc(Sc4ccnc5cc(C6CC6)nn45)cc3)c3ccccc23)c1` [Example 23, N-(4-((2-cyclopropylpyrazolo[1,5-a]pyrimidin-7-yl)thio)phenyl)-4-(4-methyl-2-thienyl)-1-phthalazinamine], the figures for the IC50 at AuroraA-TPX2 and on AuroraB were below 100 nM and 100 to 500 nM, respectively. Also, in the assay with HeLa cells, the EC50 is below 100 nM.

Regarding `Clc1ccc(-c2nnc(Nc3ccc(Oc4ncnn5cccc45)cc3)c3ccccc23)cc1` [Example 3, 4-(4-Chlorophenyl)-N-(4-(pyrrolo[2,1-f][1,2,4]triazin-4-yloxy)phenyl)-1-phthalazinamine], the IC50 on AuroraA-TPX2 was 500 to 2500 nM; on AuroraB, below 100 nM. The EC50 with HeLa cells lay within 500 to 2500 nM.

Take `Clc1ccc(-c2nnc(Nc3ccc(Sc4ncnn5ccc(Cl)c45)cc3)c3ccccc23)cc1` [Example 7, 4-(4-Chlorophenyl)-N-(4-(5-chloropyrrolo[1,2-f][1,2,4]triazin-4-ylthio)phenyl)phthalazin-1-amine]: the values for the IC50 on AuroraA-TPX2 and at AuroraB were above 2500 nM and below 100 nM, respectively. Also, the EC50 in the assay with HeLa cells lay within 100 to 500 nM.

As for `Cc1ccc(-c2nnc(Nc3ccc(Sc4ccnc5ccnn45)cc3)c3ccccc23)nc1` [Example 21, 4-(5-methyl-2-pyridinyl)-N-(4-(pyrazolo[1,5-a]pyrimidin-7-ylthio)phenyl)-1-phthalazinamine], the IC50 on AuroraA-TPX2 and on AuroraB was below 100 nM each time. Moreover, in the assay with HeLa cells, the half-maximal effective concentration (EC50) is below 100 nM.

Turning to `COCCOc1cc2nccc(Sc3ccc(Nc4nnc(-c5cc(C)cs5)c5ccccc45)cc3)n2n1` [Example 28, N-(4-((2-((2-(methyloxy)ethyl)oxy)pyrazolo[1,5-a]pyrimidin-7-yl)thio)phenyl)-4-(4-methyl-2-thienyl)-1-phthalazinamine], the IC50 at AuroraA-TPX2 and on AuroraB was below 100 nM throughout. The EC50 in the assay on HeLa cells was below 100 nM.

`Clc1ccc(-c2nnc(Nc3ccc(Oc4ccnn5cccc45)cc3)c3ccccc23)cc1` [Example 2, 4-(4-Chlorophenyl)-N-(4-(pyrrolo[1,2-b]pyridazin-4-yloxy)phenyl)-1-phthalazinamine]: the IC50 was 100 to 500 nM on AuroraA-TPX2 and below 100 nM on AuroraB. The EC50 in the assay on HeLa cells was 100 to 500 nM.

Take `COCCOc1cc2nccc(Sc3ccc(Nc4nnc(-c5ccccc5)c5ccccc45)cc3)n2n1` [Example 27, N-(4-((2-((2-(methyloxy)ethyl)oxy)pyrazolo[1,5-a]pyrimidin-7-yl)thio)phenyl)-4-phenyl-1-phthalazinamine]: the IC50 on AuroraA-TPX2 is 100 to 500 nM; on AuroraB it was below 100 nM. For the same compound, the EC50 in the assay on HeLa cells was below 100 nM.

For `Clc1ccc(-c2nnc(Nc3ccc(Sc4ccnc5ccnn45)cc3)c3ccccc23)nc1` [Example 20, 4-(5-chloro-2-pyridinyl)-N-(4-(pyrazolo[1,5-a]pyrimidin-7-ylthio)phenyl)-1-phthalazinamine], the IC50 at AuroraA-TPX2 and on AuroraB was below 100 nM each time. Further, the EC50 in the assay with HeLa cells was below 100 nM.

For `C=CCOc1cc2nccc(Sc3ccc(Nc4nnc(-c5ccc(Cl)cc5)c5ccccc45)cc3)n2n1` [Example 4, N-(4-(2-(allyloxy)pyrazolo[1,5-a]pyrimidin-7-ylthio)phenyl)-4-(4-chlorophenyl)phthalazin-1-amine], the EC50 with HeLa cells was in the range of 100 to 500 nM.

Regarding `COCCOc1cc2nccc(Sc3ccc(Nc4nnc(-c5ccc(Cl)cc5)c5ccccc45)cc3)n2n1` [Example 6, 4-(4-Chlorophenyl)-N-(4-(2-(2-methoxyethoxy)pyrazolo[1,5-a]pyrimidin-7-ylthio)phenyl)phthalazin-1-amine], the IC50 on AuroraA-TPX2 and on AuroraB was below 100 nM throughout. In the assay with HeLa cells, the EC50 was below 100 nM.

Regarding `c1ccc(-c2nnc(Nc3ccc(Sc4ccnc5cc(C6CC6)nn45)cc3)c3ccccc23)cc1` [Example 22, N-(4-((2-cyclopropylpyrazolo[1,5-a]pyrimidin-7-yl)thio)phenyl)-4-phenyl-1-phthalazinamine], the results for the IC50 on AuroraA-TPX2 and at AuroraB were 100 to 500 nM and below 100 nM, respectively. The EC50 with HeLa cells is below 100 nM.
